Legend:
Format in all cases: in vivo
Parameters in all cases: key: 5=total damage to plant; 0=no damage to plant
Abutilon theophrasti [1] = assay: Post-emergence herbicidal activity, ABUTH; details: 1000 g/Ha, sprayed post-emergence (8 days cultivation), evaluated after 13 days, scale 0-5
Experimental: (§1) Seeds of a variety of test species were sown in standard soil in pots. After 8 days cultivation (post-emergence) under controlled conditions in a glasshouse (at 24/16° C., day/night; 14 hours light; 65% humidity), the plants were sprayed with an aqueous spray solution derived from the formulation of the technical active ingredient in acetone/water (50:50) solution containing 0.5% Tween 20 (polyoxyethelyene sorbitan monolaurate, CAS RN 9005-64-5). The test plants were then grown in a glasshouse under controlled conditions (at 24/16° C., day/night; 14 hours light; 65% humidity) and watered twice daily. After 13 days, the test was evaluated (5=total damage to plant; 0=no damage to plant).

Amaranthus retroflexus [2] = assay: Pre-emergence herbicidal activity, AMARE; details: 1000 g/Ha, sprayed pre-emergence, evaluated after 13 days, scale 0-5
Experimental: as §1, with “After” for “After 8 days”, “for one day (pre-emergence)” for “(post-emergence)”

Alopecurus myosuroides [3] = assay: Post-emergence herbicidal activity, ALOMY; details: 1000 g/Ha, sprayed post-emergence (8 days cultivation), evaluated after 13 days, scale 0-5
Experimental: as §1

Alopecurus myosuroides [4] = assay: Pre-emergence herbicidal activity, ALOMY; details: 1000 g/Ha, sprayed pre-emergence, evaluated after 13 days, scale 0-5
Experimental: as §1, with “After” for “After 8 days”, “for one day (pre-emergence)” for “(post-emergence)”

Zea mays [5] = assay: Pre-emergence herbicidal activity, ZEAMX; details: 1000 g/Ha, sprayed pre-emergence, evaluated after 13 days, scale 0-5
Experimental: as §1, with “After” for “After 8 days”, “for one day (pre-emergence)” for “(post-emergence)”

Zea mays [6] = assay: Post-emergence herbicidal activity, ZEAMX; details: 1000 g/Ha, sprayed post-emergence (8 days cultivation), evaluated after 13 days, scale 0-5
Experimental: as §1

Setaria faberi [7] = assay: Post-emergence herbicidal activity, SETFA; details: 1000 g/Ha, sprayed post-emergence (8 days cultivation), evaluated after 13 days, scale 0-5
Experimental: as §1

Setaria faberi [8] = assay: Pre-emergence herbicidal activity, SETFA; details: 1000 g/Ha, sprayed pre-emergence, evaluated after 13 days, scale 0-5
Experimental: as §1, with “After” for “After 8 days”, “for one day (pre-emergence)” for “(post-emergence)”

Abutilon theophrasti [9] = assay: Pre-emergence herbicidal activity, ABUTH; details: 1000 g/Ha, sprayed pre-emergence, evaluated after 13 days, scale 0-5
Experimental: as §1, with “After” for “After 8 days”, “for one day (pre-emergence)” for “(post-emergence)”

Echinochloa crus-galli [10] = assay: Post-emergence herbicidal activity, ECHCG; details: 1000 g/Ha, sprayed post-emergence (8 days cultivation), evaluated after 13 days, scale 0-5
Experimental: as §1

Amaranthus retroflexus [11] = assay: Post-emergence herbicidal activity, AMARE; details: 1000 g/Ha, sprayed post-emergence (8 days cultivation), evaluated after 13 days, scale 0-5
Experimental: as §1

Echinochloa crus-galli [12] = assay: Pre-emergence herbicidal activity, ECHCG; details: 1000 g/Ha, sprayed pre-emergence, evaluated after 13 days, scale 0-5
Experimental: as §1, with “After” for “After 8 days”, “for one day (pre-emergence)” for “(post-emergence)”

Structure (SMILES)	ABUTH damage score, application post-emergence (Abutilon theophrasti [1])	AMARE damage score, application pre-emergence (Amaranthus retroflexus [2])	ALOMY damage score, application post-emergence (Alopecurus myosuroides [3])	ALOMY damage score, application pre-emergence (Alopecurus myosuroides [4])	ZEAMX damage score, application pre-emergence (Zea mays [5])	ZEAMX damage score, application post-emergence (Zea mays [6])	SETFA damage score, application post-emergence (Setaria faberi [7])	SETFA damage score, application pre-emergence (Setaria faberi [8])	ABUTH damage score, application pre-emergence (Abutilon theophrasti [9])	ECHCG damage score, application post-emergence (Echinochloa crus-galli [10])	AMARE damage score, application post-emergence (Amaranthus retroflexus [11])	ECHCG damage score, application pre-emergence (Echinochloa crus-galli [12])
C=CCC1C(O)N(c2cc(C(C)(C)C)ncn2)C(=O)N1C (single isomer, unassigned) [Example A33]	5	5	5	4	3	3	5	4	5	5	5	5
CN1CC(O)N(c2cc(C(C)(C)C)ncn2)C1=O (stereo not shown) [Example A1, 3-(6-tert-butylpyrimidin-4-yl)-4-hydroxy-1-methyl-imidazolidin-2-one]	5	5	5	4	4	5	5	5	5	5	5	5
CN1CC(O)N(c2cc(C(C)(C)C#N)ncn2)C1=O (stereo not shown) [Example A2]	5	5	5	4	3	3	5	5	4	5	5	4
CC1C(O)N(c2cc(C(C)(C)C)ncn2)C(=O)N1C (stereo not shown) [Example A3]	5	5	5	4	2	3	5	5	5	5	5	4
CN1C(=O)N(c2cc(C(C)(C)C)ncn2)C(O)C1O (stereo not shown) [Example A4, 1-(6-tert-butylpyrimidin-4-yl)-4,5-dihydroxy-3-methyl-imidazolidin-2-one]	4	5	4	2	0	1	4	2	4	2	5	2
CCOC1C(O)N(c2cc(C(C)(C)C)ncn2)C(=O)N1C (stereo not shown) [Example A5, 1-(6-tert-butylpyrimidin-4-yl)-4-ethoxy-5-hydroxy-3-methyl-imidazolidin-2-one]	5	5	5	4	2	4	5	5	5	5	5	5
CON1C(=O)N(c2cc(C(C)(C)C)ncn2)C(O)C1C (stereo not shown) [Example A6, 1-(6-tert-butylpyrimidin-4-yl)-5-hydroxy-3-methoxy-4-methyl-imidazolidin-2-one]	5	5	5	4		5	5	5		5	5	5
COC1C(O)N(c2cc(C(C)(C)C)ncn2)C(=O)N1OC (stereo not shown) [Example A7]	5	5	5	4	4	4	5	4	5	4	5	4
CCOC1C(O)N(c2cc(C(C)(C)C)ncn2)C(=O)N1OC (stereo not shown) [Example A8]	5	5	5	5	1	4	5	5	5	5	5	5
CON1C(=O)N(c2cc(C(C)(C)C)ncn2)C(O)C1O (stereo not shown) [Example A9]	5	5	4	3	1	1	4	1	0	4	5	2
CCO[C@@H]1C(O)N(c2cc(C(C)(C)F)ncn2)C(=O)N1C (stereo partly shown) [Example A38]	5	5			2	5	5	5	5	5	5	5
CN1CC(O)N(c2cc(C(F)(F)Cl)ncn2)C1=O (stereo not shown) [Example A39]	5	5			2	5	5	5	5	5	5	5
CN1CC(O)N(c2cc(C(C)(C)CCl)ncn2)C1=O (stereo not shown) [Example A40]	5	5			2	5	5	5	5	5	5	5

— US9487502B2, “Chemical compounds” (Syngenta Limited, priority 2013, dated 2016)
